Measurements taken from patent US8460932B2, “Method of treating a disorder by suicide gene therapy” (priority 1999, dated 2013).

System: brains of rodents
Test: Expression, distribution and longevity of transgene in brain after intrastriatal vector injection (immunohistochemistry)
Assay type: in vivo, Lewis rat
Conditions: GCV 25 mg/kg i.p. twice daily for 7 days vs saline after RAd 128; 1 month to 1 year
Protocol: UK. […] Antibodies were diluted in 1% NHS in TBS.
Groups of animals were then perfused 1 month, 3 months, 5 months, or 12 months later. Animals were perfusion-fixed and brains were cut in serial sections.
To assess the effects of HSV-1 TK on the expression another transgene, lacZ, a combination of either RAd TK+RAd HPRT or RAd 35+RAd HPRT or RAd 35+RAd TK was injected into the mid striatum of 9 rats (3 rats per group). The total vector dose was 8×10^7 iu (i.e. 4×10^7 iu per vector).

Nc1nc(O)c2ncn(COC(CO)CO)c2n1 [GCV, ganciclovir]
Effect on the maintenance of HSV1-TK immunoreactivity in the rodent brain: no effect
